ChEMBL document CHEMBL5727955, “Aminopyrazoles as janus kinase inhibitors” (2020)
pIC50: −log10 of the molar value.

What was measured:
[1] = target: Tyrosine-protein kinase JAK1 (Homo sapiens, UniProt P23458); test: (§1) Biochemical HTRF Enzyme Assay Protocol: The basic assay protocol is as follows: First, 250 nL of diluted compounds in DMSO were dispensed into the wells of a dry 384-well Black plate (GreinerFluotrac™ catalog number: 781076; Greiner Bio-One GmbH, Frickenhausen, Germany) using a Labcyte Echo® 555 acoustic dispenser ([…], Sunnyvale, Calif., USA). Subsequent reagent additions employed an Agilent™ Bravo™ liquid handling system (Aligent Technologies, Santa Clara, Calif., USA). […] After equilibration, 2 μL of 10×ATP in 1× assay buffer was added to initiate the kinase reaction and the plates were shaken and then incubated at ambient temperature for 120 minutes. At the end of the incubation, 20 μL of 2× stop buffer (Streptavidin-Dylight 650/100 mL catalogue number: 8454B (Invitrogen™/Life Technologies/ThermoFisher Scientific Inc., Waltham, Mass., USA); Europium-tagged pY20 antibody (PerkinElmer™ catalogue number: AD0067 (PerkinElmer™, Waltham, Mass., USA)); EDTA; HEPES; and Triton™ X-100 (Sigma-Aldrich, St. Louis, Mo., USA) was added to quench the reaction.
Tyrosine-protein kinase JAK1, sequence (P23458 whole entry): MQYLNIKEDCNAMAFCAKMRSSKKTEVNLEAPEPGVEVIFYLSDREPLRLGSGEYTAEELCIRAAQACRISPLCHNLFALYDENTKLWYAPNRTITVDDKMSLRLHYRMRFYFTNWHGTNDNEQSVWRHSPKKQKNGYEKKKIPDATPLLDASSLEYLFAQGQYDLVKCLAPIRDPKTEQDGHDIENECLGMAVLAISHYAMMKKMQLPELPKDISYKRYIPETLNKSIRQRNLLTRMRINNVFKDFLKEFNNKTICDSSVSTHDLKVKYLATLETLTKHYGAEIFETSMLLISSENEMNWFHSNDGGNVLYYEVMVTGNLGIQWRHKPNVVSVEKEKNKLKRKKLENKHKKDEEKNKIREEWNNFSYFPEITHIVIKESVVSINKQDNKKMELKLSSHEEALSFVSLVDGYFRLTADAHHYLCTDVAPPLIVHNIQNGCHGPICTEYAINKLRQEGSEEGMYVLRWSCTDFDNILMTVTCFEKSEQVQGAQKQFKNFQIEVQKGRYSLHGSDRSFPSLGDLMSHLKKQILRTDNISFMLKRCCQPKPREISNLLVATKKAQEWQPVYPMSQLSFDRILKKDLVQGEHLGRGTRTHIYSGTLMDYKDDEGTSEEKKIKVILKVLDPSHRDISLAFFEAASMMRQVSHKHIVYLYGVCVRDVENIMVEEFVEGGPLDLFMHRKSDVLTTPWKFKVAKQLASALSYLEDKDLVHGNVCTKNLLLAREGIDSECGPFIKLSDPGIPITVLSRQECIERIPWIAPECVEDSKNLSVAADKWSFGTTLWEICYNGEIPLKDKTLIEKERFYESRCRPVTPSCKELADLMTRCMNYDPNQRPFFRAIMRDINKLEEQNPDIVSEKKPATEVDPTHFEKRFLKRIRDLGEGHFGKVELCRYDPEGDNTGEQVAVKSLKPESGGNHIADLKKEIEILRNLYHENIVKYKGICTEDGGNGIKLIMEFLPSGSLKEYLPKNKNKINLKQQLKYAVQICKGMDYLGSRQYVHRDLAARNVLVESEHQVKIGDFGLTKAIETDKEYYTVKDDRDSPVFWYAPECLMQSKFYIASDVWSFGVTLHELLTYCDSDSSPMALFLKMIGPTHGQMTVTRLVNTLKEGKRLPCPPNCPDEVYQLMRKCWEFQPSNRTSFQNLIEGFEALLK

[2] = target: Tyrosine-protein kinase JAK2 (Homo sapiens, UniProt O60674); test: as §1
Tyrosine-protein kinase JAK2, sequence (O60674 whole entry): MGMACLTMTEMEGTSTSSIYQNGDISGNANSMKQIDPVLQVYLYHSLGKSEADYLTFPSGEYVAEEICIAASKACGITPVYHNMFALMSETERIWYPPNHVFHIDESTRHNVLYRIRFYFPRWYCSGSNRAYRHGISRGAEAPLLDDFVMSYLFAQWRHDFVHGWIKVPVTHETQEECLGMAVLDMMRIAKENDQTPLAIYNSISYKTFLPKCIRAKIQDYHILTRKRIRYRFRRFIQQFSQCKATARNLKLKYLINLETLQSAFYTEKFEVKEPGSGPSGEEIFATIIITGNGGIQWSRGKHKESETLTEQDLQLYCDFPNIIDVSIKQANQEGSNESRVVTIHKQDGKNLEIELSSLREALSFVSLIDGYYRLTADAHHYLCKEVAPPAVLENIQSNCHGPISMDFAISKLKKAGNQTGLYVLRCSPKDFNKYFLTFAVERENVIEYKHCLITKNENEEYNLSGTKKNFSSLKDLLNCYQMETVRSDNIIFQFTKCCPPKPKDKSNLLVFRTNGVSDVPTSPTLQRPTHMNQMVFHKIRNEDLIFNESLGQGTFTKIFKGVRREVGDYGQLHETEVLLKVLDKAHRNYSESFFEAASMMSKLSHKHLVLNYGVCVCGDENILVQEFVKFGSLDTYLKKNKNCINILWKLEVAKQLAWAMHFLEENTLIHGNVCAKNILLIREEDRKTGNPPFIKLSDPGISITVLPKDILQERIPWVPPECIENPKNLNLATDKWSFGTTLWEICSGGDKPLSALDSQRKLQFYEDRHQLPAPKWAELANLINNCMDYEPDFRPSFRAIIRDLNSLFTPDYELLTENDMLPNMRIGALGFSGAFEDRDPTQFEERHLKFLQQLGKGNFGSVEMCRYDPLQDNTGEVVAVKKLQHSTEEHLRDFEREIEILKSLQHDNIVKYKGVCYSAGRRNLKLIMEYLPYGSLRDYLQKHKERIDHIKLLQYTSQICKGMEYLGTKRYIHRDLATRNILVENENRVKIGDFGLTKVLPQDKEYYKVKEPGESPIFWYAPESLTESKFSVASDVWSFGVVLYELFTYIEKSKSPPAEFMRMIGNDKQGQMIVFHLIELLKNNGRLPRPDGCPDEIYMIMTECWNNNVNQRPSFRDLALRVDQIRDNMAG

| Structure (SMILES) | pIC50 [1] | pIC50 [2] |
| --- | --- | --- |
| N#C[C@H]1CCOC[C@@H]1n1cc(C(N)=O)c(Nc2ccc(Cl)c(Cl)c2)n1 | 8.68 |  |
| N#C[C@H]1CCOC[C@@H]1n1cc(C(N)=O)c(Nc2ccc(OC(F)(F)F)cc2)n1 | 9.80 | 8.87 |
